Values joined by “and” are separate entries in the source; they are usually repeats but may differ in a detail not shown here. Equal entries are not always repeated.
Experiments:
[1] = test system: Fe-DA; test: H2O2 assay, Fe-DA (% cf. Fe 0.4 μM/DA 50 μM); assay type: biochemical; settings: Fe 0.4 μM/DA 50 μM
Description: (§1) This fluoresence assay evaluates the ability of a test compound to inhibit the generation of hydrogen peroxide (H2O2) by iron in the presence of a reducing substrate such as ascorbic acid. In the assay, iron in the form of FeCl3 or copper is allowed to react with ascorbic acid by incubating for 1 hr at 37° C. in the presence of the fluorescing compound DCF and horseradish peroxidase. H2O2 generated by the system is assessed by measuring the specific fluorescence profile at the excitation and emission wavelengths of 485 and 530 nm respectively, in the presence of increasing concentrations of test compound. Test compounds are ranked according to their capacity to inhibit H2O2 generated by the system where lower values reflect greater ability to inhibit H2O2 production.

[2] = test system: generation of hydrogen peroxide (H2O2) by iron; test: H2O2 Inhibition Assay; assay type: biochemical
Description: Assay 1. H2O2 Inhibition Assay.
as §1

[3] = test system: M17 human neuroblastoma cells; test: Metal Uptake Assay (metal transport); assay type: cell-based; settings: 10 μM Cu + 10 μM compound, 5 hours
Description: Assay 3. Metal Uptake Assay
M17 human neuroblastoma cells are plated out on 6 well plates and left overnight. Enough cells are added to give approximately 70% confluent the following day of the experiment. Test compounds are added to media and mixed with equi-molar amounts of CuCl2 solution. A=10 μM Cu+10 μM MPAC; B=10 μM Cu+10 μM MPAC.
Cells are incubated in 1 ml of media/MPAC/Cu mix for 5 hours at 37° C. At the end of the incubation the media is removed with a vacuum aspirator and 1 ml of PBS added to dislodge the cells. Cells are then put into Eppendorf tubes and pelleted. The PBS is removed and the remaining cell pellets are frozen at −20 C.
The cell pellets are prepared as follows:
Received cell pellets of similar levels in 1.5 ml microfuge tubes. Added 50 μl of concentrated Nitric Acid (Aristar, BDH) to each cell pellet and allowed them to digest over night. Heated the samples for 20 min at 90° C. to complete the digestion. The volume of each sample was reduced to ˜45 ul after digestion. Added 1 ml of the 1% Nitric Acid diluent to each sample. (referred to as the “preparation solution” samples).
Measurements were made using a Varian UltraMass ICPMS instrument under operating conditions suitable for routine multi-element analysis.
The instrument was calibrated using Blank, 10, 50 and 100 ppb of a certified multi-element ICPMS standard solution (ICP-MS—CAI2-1, Accustandard) for Fe, Cu and Zn in 1% nitric acid. Used an certified internal standard solution containing 100 ppb Yttrium (Y 89) as an internal control (ICP-MS—IS-MIX1-1, Accustandard).

[4] = test system: Neuronal cortical cells; test: Cytotox (% viable); Primary Neuronal Cells Neurotoxicity Assay; assay type: cell-based, mouse; settings: cell type not given, repeat values given
Description: Assay 2 (a). Primary Neuronal Cells Neurotoxicity Assays
Cortical cultures were prepared as previously described (White et al., 1998). Embryonic day 14 BL6Jx129sv mouse cortices were removed, dissected free of meninges and dissociated in 0.025% (wt/vol) trypsin. Dissociated cells were plated in 48 well culture plates at a density of 2×10^6 cells/mL in MEM with 25% (vol/vol) FCS and 5% (vol/vol) HS and incubated at 37° C., 2 hrs. Media was then replaced with Neurobasal media (Invitrogen Life Technologies) and B27 supplements (Invitrogen Life Technologies). Cultures were maintained at 37° C. in 5% CO2. Prior to experimentation, the culture medium was replaced with Neurobasal media and B27 minus antioxidants (Invitrogen Life Technologies).
Neuronal cortical cells were cultured for five days as per Assay 2 in NB media and B27 supplement.
On day six the test compounds were added to the neuronal cell cultures in NB media and B27 supplement minus antioxidants.
Test compounds were dissolved in 100% DMSO to a concentration of 2.5 mM (10 mM if excess compound was weighed out per vial—then diluted to 2.5 mM). 2.5 mM stock solution was serially diluted 1 in 10 to give working solutions of 250 uM, 25 uM, 2.5 uM. Test compounds were not added directly to cells, instead they were added to a 48 well ‘Drug Plate’ as comprised below: • Preparation of “Drug Plate”:
Well 1: 576 ul NB+B27 (no antioxidant)*+24 ul 2.5 uM test compound
Well 2: 576 ul NB+B27 (no antioxidant)+24 μl 25 uM test compound
Well 3: 576 ul NB+B27 (no antioxidant)+24 ul 250 uM test compound
Well 4: 576 ul NB+B27 (no antioxidant)+24 ul 2.5 uM test compound
Well 5: 576 ul NB+B27 (no antioxidant)+24 ul 25 uM test compound
Well 6: 576 ul NB+B27 (no antioxidant)+24 ul 250 uM test compound
Well 7: 576 ul NB+B27 (no antioxidant)+24 ul test compound diluent**
Well 8: 600 ul NB+B27 (no antioxidant)
The Drug Plate was incubated at 37° C. for 15 mins. 200 ul of each well was added in triplicate to the corresponding cell plate. The cell plate was incubated at 37° C., for 4 days, (2 compounds are tested on each plate of cells).
*NB media and B27 (no antioxidants),
**PBT diluent 10% DMSO in NB+1327 (no antioxidants)
On completion of the assay, 1/10 volume MTS was added per well of plate (ie 25 ul/250 ul). The plates were incubated at 37° C. for 2 hrs, and then absorbance was read at 560 nm.

Compound	IC50 [2] [nM]	Fe-DA % cf. Fe 0.4 μM/DA 50 μM [1] [%]	Metal transport [3]	Cytotox (% viable at 1 uM) [4]	Cytotox (% viable at 10 uM) [4]
CCCN(CCC)Cc1nc2c(O)c(Cl)cc(Cl)c2c(=O)n1CCC [Compound F4543]	500	71	Metal transport 62%	92.0% and 107.4%	52.6% and 61.5%
CCCN(CCC)Cc1nc2c(O)c(Cl)cc(Cl)c2c(=O)n1CC1CC1 [Compound F4535]	880	62	Metal transport 25%	87.0% and 103.0%	63.6% and 59.8%
CCCN(CCC)Cc1nc2c(O)c(Cl)cc(Cl)c2c(=O)n1CC [Compound F4550]	750	128	Metal transport 35%	88.7% and 94.7%	71.7% and 83.5%
CCN(C)Cc1nc2c(O)c(Cl)cc(Cl)c2c(=O)n1C [Compound F4582]	550				
CNCc1nc2c(O)c(Cl)cc(Cl)c2c(=O)n1CC(C)C [Compound F4544]	830	164	Metal transport 19%	84.0% and 86.9%	29.7% and 26.7%
CCCN(CCC)Cc1nc2c(O)c(Cl)cc(Cl)c2c(=O)n1CC(C)C [Compound F4548]	380	40	Metal transport 38%	96.5% and 96.0%	55.9% and 46.0%
CCNCc1nc2c(O)c(Cl)cc(Cl)c2c(=O)n1CC(C)C [Compound F4545]	430	148	Metal transport 40%	86.4% and 85.0%	36.2% and 28.0%
CCCn1c(CN(CC)CC)nc2c(O)c(Cl)cc(Cl)c2c1=O [Compound F4541]	740	107	Metal transport 13%	97.3% and 96.4%	76.6% and 90.8%
CCN(CC)Cc1nc2c(O)c(Cl)cc(Cl)c2c(=O)n1CC(C)C [Compound F4546]	460	66	Metal transport 21%	95.6% and 92.2% and 103.3%	63.7% and 86.5% and 100.3%

Second part, led by results:

IC50 [2] [nM]	Compound	Fe-DA % cf. Fe 0.4 μM/DA 50 μM [1] [%]	Metal transport [3]	Cytotox (% viable at 1 uM) [4]	Cytotox (% viable at 10 uM) [4]
760	CCn1c(CN(C)Cc2ccc(F)cc2)nc2c(O)c(Cl)cc(Cl)c2c1=O [Compound F4487]	53	Metal transport 133%		
1890	O=c1c2c(Cl)cc(Cl)c(O)c2nc(CN2CCCC2)n1CC1CC1 [Compound F4499]	55	Metal transport 15%	99.1% and 76.5%	68.6% and 78.1%
1140	CCCn1c(CN2CCCCC2)nc2c(O)c(Cl)cc(Cl)c2c1=O [Compound F4492]	55	Metal transport 18%		
1000	CN(Cc1nc2c(O)c(Cl)cc(Cl)c2c(=O)n1CC1CC1)C1CCCCC1 [Compound F4536]	81	Metal transport 24%	92.7% and 105.1% and 109.8%	
290	CCCn1c(CN(C)C)nc2c(O)c(Cl)cc(Cl)c2c1=O [Compound F4530]	57	Metal transport 24%	105.0% and 96.2%	57.6% and 41.4%
570	C#CCN(C)Cc1nc2c(O)c(Cl)cc(Cl)c2c(=O)n1CC [Compound F4392]	72	Metal transport 161%		
300	CCCNCc1nc2c(O)c(Cl)cc(Cl)c2c(=O)n1CC [Compound F4549]	40	Metal transport 22%	98.5% and 99.7%	44.6% and 52.1%
630	CCCCN(C)Cc1nc2c(O)c(Cl)cc(Cl)c2c(=O)n1C [Compound F4552]	59	Metal transport 94%	97.8% and 99.0%	58.7% and 62.8%
500	CCN(C)Cc1nc2c(O)c(Cl)cc(Cl)c2c(=O)n1CC1CC1 [Compound F4581]				
> 10000	CCCn1c(CNCC)nc2c(O)c(Cl)cc(Cl)c2c1=O [Compound F4540]	122	Metal transport 14%	100.4% and 111.5%	83.4% and 96.5%
500	CCCNCc1nc2c(O)c(Cl)cc(Cl)c2c(=O)n1CC(C)C [Compound F4547]	34	Metal transport 54%	75.0% and 83.9%	25.2% and 26.0%
500	Cn1c(CN2CCCCC2)nc2c(O)c(Cl)cc(Cl)c2c1=O [Compound F4475]	80	Metal transport 8%		
220	CCCNCc1nc2c(O)c(Cl)cc(Cl)c2c(=O)n1C [Compound F4477]	65	Metal transport 16%		
